Source: patent publication US6844366B2, “Sulfonamide hydroxamates” (Syntex (U.S.A.) LLC, priority 1998, dated 2005)

| Compound | melting point [°C] |
| --- | --- |
| COC(=O)c1ccc(CN([C@@H](C(=O)NO)C(C)C)S(=O)(=O)c2ccc(OC)cc2)cc1 [Compound 21, N-Hydroxy-2(R)-[(4-methoxycarbonylbenzyl)-(4-methoxybenzenesulfonyl)amino]-3-methylbutyramide] | 164 to 165 |
| COc1cc(C)c(S(=O)(=O)N(Cc2ccc3c(c2)OCO3)[C@@H](C(=O)NO)[C@H](C)O)c(C)c1C [Compound 87, N-hydroxy-2(R)-[(3,4-methylenedioxybenzyl)-(4-methoxy-2,3,6-trimethylbenzenesulfonyl)amino]-3(S)-hydroxybutyramide] | 95 to 105 |
| COc1cc(C)c(S(=O)(=O)N(Cc2ccc3[nH]cc(C(C)=O)c3c2)[C@@H](C(=O)NO)C(C)C)c(C)c1C [Compound 126, N-hydroxy-2(R)-[(1H-3-acetyl-indol-5-ylmethyl)-(4-methoxy-2,3,6-trimethylbenzenesulfonyl)amino]-3-methylbutyramide] | 163 to 171 |
| COc1cc(C)c(S(=O)(=O)N(Cc2ccc3c(c2)OCO3)[C@H](CNS(C)(=O)=O)C(=O)NO)c(C)c1 [Compound 128, N-hydroxy-2(R)-[(3,4-methylendioxybenzyl)-(2,6-dimethyl-4-methoxybenzenesulfonyl)amino]-3-(methanesulfonyl)amino-propionamide] | 98 to 102 |
| COc1cc(C)c(S(=O)(=O)N(Cc2ccc3c(c2)OCO3)[C@H](CNS(=O)(=O)c2ccccc2)C(=O)NO)c(C)c1 [Compound 129, N-hydroxy-2(R)-[(3,4-methylendioxybenzyl)-(2,6-dimethyl-4-methoxybenzenesulfonyl)amino]-3-benzenesulfonylamino-propionamide] | 103 to 107 |
| COC(=O)c1ccc(C(=O)NC[C@H](C(=O)NO)N(Cc2ccc3c(c2)OCO3)S(=O)(=O)c2c(C)cc(OC)cc2C)cc1 [Compound 133, N-hydroxy-2(R)-[(3,4-methylendioxybenzyl)-(2,6-dimethyl-4-methoxybenzenesulfonyl)amino]-3-(4-methoxycarbonyl-benzoyl)amino-propionamide] | 119 to 124 |
| COc1cc(C)c(S(=O)(=O)N(Cc2ccc3[nH]ccc3c2)[C@@H](C(=O)NO)C(C)C)cc1C [Compound 145, N-hydroxy-2(R)-2-[(1H-indol-5-ylmethyl)-(4-methoxy-2,5-dimethylbenzenesulfonyl)-amino]-3-methylbutyramide] | 117 to 121 |
